Laboratory results published in ChEMBL document CHEMBL1129252, “Identification of a 3-hydroxylated tacrine metabolite in rat and man: metabolic profiling implications and pharmacology” (J Med Chem, 1996).
pIC50: −log10 of the molar value.

Experiments:
[1] = target: T1, Acetylcholinesterase (Mus musculus, UniProt P21836)
T1 sequence (P21836 whole entry): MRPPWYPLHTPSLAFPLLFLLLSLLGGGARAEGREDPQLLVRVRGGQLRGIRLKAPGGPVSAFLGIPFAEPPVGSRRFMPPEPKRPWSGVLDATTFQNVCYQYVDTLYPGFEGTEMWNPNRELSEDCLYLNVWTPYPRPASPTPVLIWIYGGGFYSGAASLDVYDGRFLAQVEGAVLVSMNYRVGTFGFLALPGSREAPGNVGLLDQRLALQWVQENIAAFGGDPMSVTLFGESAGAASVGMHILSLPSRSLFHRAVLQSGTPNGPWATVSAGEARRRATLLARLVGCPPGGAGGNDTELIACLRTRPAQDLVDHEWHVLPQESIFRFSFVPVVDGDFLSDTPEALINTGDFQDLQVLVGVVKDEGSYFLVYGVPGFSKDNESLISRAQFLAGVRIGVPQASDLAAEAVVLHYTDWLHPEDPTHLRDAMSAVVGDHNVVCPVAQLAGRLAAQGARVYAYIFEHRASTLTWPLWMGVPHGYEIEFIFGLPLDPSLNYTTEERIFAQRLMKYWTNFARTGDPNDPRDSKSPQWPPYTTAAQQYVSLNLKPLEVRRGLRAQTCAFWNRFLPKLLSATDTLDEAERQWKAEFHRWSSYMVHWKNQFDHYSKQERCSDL
Description: Inhibition of Acetylcholinesterase in mouse red blood cell

[2] = target: T2, Acetylcholinesterase (Rattus norvegicus, UniProt P37136)
T2 sequence (P37136 whole entry): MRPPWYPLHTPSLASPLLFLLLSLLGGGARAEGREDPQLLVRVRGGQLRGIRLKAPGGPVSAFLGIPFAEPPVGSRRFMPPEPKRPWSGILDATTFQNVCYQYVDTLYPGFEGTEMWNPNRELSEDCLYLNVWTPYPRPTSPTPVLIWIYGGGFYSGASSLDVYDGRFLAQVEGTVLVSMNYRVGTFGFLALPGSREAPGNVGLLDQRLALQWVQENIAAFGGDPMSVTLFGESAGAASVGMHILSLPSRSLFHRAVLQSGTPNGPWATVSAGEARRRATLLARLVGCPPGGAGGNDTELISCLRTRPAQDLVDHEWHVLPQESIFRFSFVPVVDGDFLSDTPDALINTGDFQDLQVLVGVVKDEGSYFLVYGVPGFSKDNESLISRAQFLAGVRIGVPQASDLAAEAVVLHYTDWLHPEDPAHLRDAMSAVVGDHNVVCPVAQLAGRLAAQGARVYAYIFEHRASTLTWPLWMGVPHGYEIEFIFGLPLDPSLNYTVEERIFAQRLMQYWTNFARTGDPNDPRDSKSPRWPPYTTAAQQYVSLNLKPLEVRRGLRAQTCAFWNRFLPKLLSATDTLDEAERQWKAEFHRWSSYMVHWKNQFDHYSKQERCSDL
Description: Inhibition of Acetylcholinesterase in rat red blood cell

[3] = target: Acetylcholinesterase (Homo sapiens, UniProt P22303)
Acetylcholinesterase (Homo sapiens, UniProt P22303), sequence (P22303 whole entry): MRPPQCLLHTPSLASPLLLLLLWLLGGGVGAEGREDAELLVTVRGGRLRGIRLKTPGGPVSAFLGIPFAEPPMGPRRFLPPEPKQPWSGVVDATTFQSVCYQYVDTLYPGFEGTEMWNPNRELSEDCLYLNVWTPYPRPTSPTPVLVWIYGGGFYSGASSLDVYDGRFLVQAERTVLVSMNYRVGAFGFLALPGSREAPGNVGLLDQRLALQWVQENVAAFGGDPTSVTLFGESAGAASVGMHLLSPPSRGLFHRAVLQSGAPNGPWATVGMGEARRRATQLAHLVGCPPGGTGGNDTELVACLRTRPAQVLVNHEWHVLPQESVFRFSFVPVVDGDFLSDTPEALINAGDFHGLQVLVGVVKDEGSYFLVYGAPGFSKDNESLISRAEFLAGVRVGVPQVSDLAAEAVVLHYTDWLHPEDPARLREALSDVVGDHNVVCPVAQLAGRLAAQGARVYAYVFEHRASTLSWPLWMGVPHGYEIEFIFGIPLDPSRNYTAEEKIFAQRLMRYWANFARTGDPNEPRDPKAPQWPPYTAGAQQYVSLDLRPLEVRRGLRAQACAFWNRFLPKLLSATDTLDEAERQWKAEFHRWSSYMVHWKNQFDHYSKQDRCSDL
Description: Inhibition of Acetylcholinesterase in human red blood cell

Structure (SMILES)	pIC50 [1]	pIC50 [2]	pIC50 [3]
Nc1c2c(nc3ccccc13)CCC(O)C2 (stereo not given)	5.32	5.75	5.79
Nc1c2c(nc3ccccc13)CC(O)CC2 (stereo not given) [7-HYDROXYTACRINE]	5.92	6.32	6.21
Nc1c2c(nc3ccccc13)C(O)CCC2 (stereo not given)	5.84	6.39	6.28
Nc1c2c(nc3ccccc13)CCCC2O (stereo not given) [VELNACRINE]		6.44	
